Like-named read-outs stand apart in the source and are kept apart here.
Target: LC3B (Homo sapiens, UniProt Q9GZQ8)
Conditions: for CSP: LC3B:TH152 1:2

## CCCCCCC(Sc1nc(Cl)cc(Nc2nc(-c3ccc(C(=O)O)cc3)cs2)n1)C(=O)O (stereo not shown) [compound 21]
G85 HN resonance, molar ratio TH152:LC3B 0.125
  CSP induced: 0.02291
G85 HN resonance, molar ratio TH152:LC3B 0.25
  CSP induced: 0.03839
G85 HN resonance, molar ratio TH152:LC3B 0.5
  CSP induced: 0.1193
G85 HN resonance, molar ratio TH152:LC3B 1
  CSP induced: 0.155
G85 HN resonance, molar ratio TH152:LC3B 2
  CSP induced: 0.2522
G85 HN resonance, molar ratio TH152:LC3B 4
  CSP induced: 0.2665
K51 HN resonance, molar ratio TH152:LC3B 0.125
  CSP induced: 0.02268
K51 HN resonance, molar ratio TH152:LC3B 0.25
  CSP induced: 0.07734
K51 HN resonance, molar ratio TH152:LC3B 0.5
  CSP induced: 0.1341
K51 HN resonance, molar ratio TH152:LC3B 1
  CSP induced: 0.2088
K51 HN resonance, molar ratio TH152:LC3B 2
  CSP induced: 0.2565
K51 HN resonance, molar ratio TH152:LC3B 4
  CSP induced: 0.2885
LC3B residue A75
  CSP: 0.013 ppm
LC3B residue A78
  CSP: 0.040 ppm
LC3B residue A114
  CSP: 0.035 ppm
LC3B residue D19
  CSP: 0.028 ppm
LC3B residue D48
  CSP: 0.348 ppm
LC3B residue D56
  CSP: 0.088 ppm
LC3B residue D104
  CSP: 0.039 ppm
LC3B residue D106
  CSP: 0.043 ppm
LC3B residue E14
  CSP: 0.013 ppm
LC3B residue E18
  CSP: 0.013 ppm
LC3B residue E25
  CSP: 0.075 ppm
LC3B residue E36
  CSP: 0.143 ppm
LC3B residue E41
  CSP: 0.015 ppm
LC3B residue E62
  CSP: 0.105 ppm
LC3B residue E97
  CSP: 0.079 ppm
LC3B residue E100
  CSP: 0.117 ppm
LC3B residue E102
  CSP: 0.024 ppm
LC3B residue E105
  CSP: 0.037 ppm
LC3B residue E117
  CSP: 0.088 ppm
LC3B residue F07
  CSP: 0.134 ppm
LC3B residue F13
  CSP: 0.017 ppm
LC3B residue F52
  CSP: 0.303 ppm
LC3B residue F108
  CSP: 0.042 ppm
LC3B residue F119
  CSP: 0.051 ppm
LC3B residue G40, estimated
  CSP: 0.060 ppm
LC3B residue G107
  CSP: 0.021 ppm
LC3B residue H27
  CSP: 0.041 ppm
LC3B residue H57
  CSP: 0.104 ppm
LC3B residue I23
  CSP: 0.063 ppm
LC3B residue I31
  CSP: 0.112 ppm
LC3B residue I34
  CSP: 0.268 ppm
LC3B residue I35
  CSP: 0.113 ppm
LC3B residue I64
  CSP: 0.179 ppm
LC3B residue I66
  CSP: 0.103 ppm
LC3B residue I67
  CSP: 0.053 ppm
LC3B residue K08
  CSP: 0.049 ppm
LC3B residue K30
  CSP: 0.042 ppm
LC3B residue K39
  CSP: 0.108 ppm
LC3B residue K42
  CSP: 0.061 ppm
LC3B residue K49
  CSP: 0.162 ppm
LC3B residue K51
  CSP: 0.313 ppm
LC3B residue K65
  CSP: 0.162 ppm
LC3B residue K103
  CSP: 0.084 ppm
LC3B residue L22
  CSP: 0.077 ppm
LC3B residue L44
  CSP: 0.080 ppm
LC3B residue L47
  CSP: 0.391 ppm
LC3B residue L53
  CSP: 0.260 ppm
LC3B residue L63
  CSP: 0.163 ppm
LC3B residue L71
  CSP: 0.095 ppm
LC3B residue L73
  CSP: 0.103 ppm
LC3B residue L109
  CSP: 0.035 ppm
LC3B residue M01, estimated
  CSP: 0.020 ppm
LC3B residue M60
  CSP: 0.042 ppm
LC3B residue M111
  CSP: 0.134 ppm
LC3B residue N59
  CSP: 0.559 ppm
LC3B residue N74
  CSP: 0.039 ppm
LC3B residue N76
  CSP: 0.012 ppm
LC3B residue P02, estimated
  CSP: 0.020 ppm
LC3B residue P28, estimated
  CSP: 0.020 ppm
LC3B residue P32, estimated
  CSP: 0.150 ppm
LC3B residue P45, estimated
  CSP: 0.170 ppm
LC3B residue P55, estimated
  CSP: 0.150 ppm
LC3B residue Q09
  CSP: 0.00263 ppm
LC3B residue Q15
  CSP: 0.016 ppm
LC3B residue Q26
  CSP: 0.095 ppm
LC3B residue Q43
  CSP: 0.037 ppm
LC3B residue Q72
  CSP: 0.019 ppm
LC3B residue Q77
  CSP: 0.045 ppm
LC3B residue Q116
  CSP: 0.027 ppm
LC3B residue R10
  CSP: 0.025 ppm
LC3B residue R11
  CSP: 0.027 ppm
LC3B residue R16
  CSP: 0.021 ppm
LC3B residue R21
  CSP: 0.028 ppm
LC3B residue R24
  CSP: 0.060 ppm
LC3B residue R37
  CSP: 0.107 ppm
LC3B residue R68
  CSP: 0.281 ppm
LC3B residue R69
  CSP: 0.147 ppm
LC3B residue R70
  CSP: 0.122 ppm
LC3B residue S03, estimated
  CSP: 0.020 ppm
LC3B residue S61
  CSP: 0.163 ppm
LC3B residue S96
  CSP: 0.238 ppm
LC3B residue S101
  CSP: 0.072 ppm
LC3B residue S115
  CSP: 0.019 ppm
LC3B residue T06
  CSP: 0.020 ppm
LC3B residue T12
  CSP: 0.021 ppm
LC3B residue T29
  CSP: 0.015 ppm
LC3B residue T50
  CSP: 0.299 ppm
LC3B residue T118
  CSP: 0.045 ppm
LC3B residue V17
  CSP: 0.022 ppm
LC3B residue V20
  CSP: 0.018 ppm
LC3B residue V33
  CSP: 0.194 ppm
LC3B residue V46
  CSP: 0.270 ppm
LC3B residue V54
  CSP: 0.190 ppm
LC3B residue V58
  CSP: 0.313 ppm
LC3B residue V98
  CSP: 0.081 ppm
LC3B residue V112
  CSP: 0.337 ppm
LC3B residue Y38
  CSP: 0.061 ppm
LC3B residue Y99
  CSP: 0.068 ppm
LC3B residue Y110
  CSP: 0.103 ppm
LC3B residue Y113
  CSP: 0.148 ppm
M111 HN resonance, molar ratio TH152:LC3B 0.125
  CSP induced: 0.01154
M111 HN resonance, molar ratio TH152:LC3B 0.25
  CSP induced: 0.02288
M111 HN resonance, molar ratio TH152:LC3B 0.5
  CSP induced: 0.0422
M111 HN resonance, molar ratio TH152:LC3B 1
  CSP induced: 0.08206
M111 HN resonance, molar ratio TH152:LC3B 2
  CSP induced: 0.1192
M111 HN resonance, molar ratio TH152:LC3B 4
  CSP induced: 0.1287
S90 HN resonance, molar ratio TH152:LC3B 0.125
  CSP induced: 0.02291
S90 HN resonance, molar ratio TH152:LC3B 0.25
  CSP induced: 0.03839
S90 HN resonance, molar ratio TH152:LC3B 0.5
  CSP induced: 0.1193
S90 HN resonance, molar ratio TH152:LC3B 1
  CSP induced: 0.155
S90 HN resonance, molar ratio TH152:LC3B 2
  CSP induced: 0.2522
S90 HN resonance, molar ratio TH152:LC3B 4
  CSP induced: 0.2665
V33 HN resonance, molar ratio TH152:LC3B 0.125
  CSP induced: 0.02123
V33 HN resonance, molar ratio TH152:LC3B 0.25
  CSP induced: 0.03832
V33 HN resonance, molar ratio TH152:LC3B 0.5
  CSP induced: 0.08102
V33 HN resonance, molar ratio TH152:LC3B 1
  CSP induced: 0.1239
V33 HN resonance, molar ratio TH152:LC3B 2
  CSP induced: 0.1753
V33 HN resonance, molar ratio TH152:LC3B 4
  CSP induced: 0.2006

Reference: paper PMC11589570, “Critical assessment of LC3/GABARAP ligands used for degrader development and ligandability of LC3/GABARAP binding pockets” (Nature Communications, 2024)
